Measured values: PubChem BioAssay (NCI)
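In this assay, cells in 96-well plates receive the compound at five concentrations for 48 hours. Endpoints are linearly interpolated between the surrounding concentrations. GI50 is the concentration that inhibits growth by half. TGI denotes the concentration required for complete inhibition of growth.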

How the values were obtained:
Test in all cases: DTP human tumour cell line panel, 48 h
[1] = system: SF-268 CNS
[2] = system: SW-620 colon
[3] = system: HOP-62 NSCLC
[4] = system: OVCAR-4 ovarian
[5] = system: NCI-H23 lung
[6] = system: OVCAR-8 ovarian
[7] = system: UACC-62 melanoma
[8] = system: OVCAR-5 ovarian
[9] = system: SF-295 CNS
[10] = system: MDA-MB-435

SMILES | GI50 [1] [µM] | TGI [1] [µM] | GI50 [2] [µM] | TGI [2] [µM] | GI50 [3] [µM] | TGI [3] [µM] | GI50 [4] [µM] | TGI [4] [µM] | GI50 [5] [µM] | TGI [5] [µM] | GI50 [6] [µM] | TGI [6] [µM] | GI50 [7] [µM] | TGI [7] [µM] | GI50 [8] [µM] | TGI [8] [µM] | GI50 [9] [µM] | TGI [9] [µM] | GI50 [10] [µM] | TGI [10] [µM]
O=C1c2ccccc2C(=O)N1/N=C\c1ccc(Br)cc1 | > 100 | > 100 | > 100 | > 100 | > 100 | > 100 | > 100 | > 100 | > 100 | > 100 | > 100 | > 100 | > 100 | > 100 | > 100 | > 100 | > 100 | > 100 | – | –
CSc1nc(NC2OCC(OC(C)=O)C(OC(C)=O)C2OC(C)=O)c(N=CC=Nc2c(NC3OCC(OC(C)=O)C(OC(C)=O)C3OC(C)=O)nc(SC)n(C)c2=O)c(=O)n1C (stereo not drawn) | – | > 100 | – | > 100 | – | > 100 | – | > 100 | – | > 100 | – | > 100 | – | > 100 | – | > 100 | – | > 100 | – | –
COc1cccc(/C=C(/C(=O)O)c2cc(OC)c(OC)c(OC)c2)c1 | – | > 100 | – | > 100 | – | > 100 | – | > 100 | – | – | – | > 100 | – | > 100 | – | – | – | > 100 | – | –
C[C@H](c1ccc(Cl)cc1N)N1C(=O)c2cc(I)ccc2N(CCCN2CCN(C)CC2)C(=O)[C@@H]1c1ccc(Cl)cc1 | 1.7 | 3.2 | 1.72 | 3.14 | – | – | 1.74 | 3.43 | 2.18 | 5.86 | – | – | 1.23 | 2.54 | 1.77 | 3.44 | – | – | 1.81 | 3.57
C[C@]12CCC[C@H](OC=O)C1(O)C[C@H](C(=O)O)CC2 (stereo partly drawn) | – | > 100 | – | > 100 | – | > 100 | – | > 100 | – | > 100 | – | > 100 | – | 32.5 | – | > 100 | – | > 100 | – | –
CCOC(=O)C12CCCC1(O)N(NC(=O)c1cccc(Cl)c1)C(C)=C2C(=O)OC (stereo not drawn) | – | > 100 | – | > 100 | – | > 100 | – | > 100 | – | – | – | > 100 | – | > 100 | – | > 100 | – | > 100 | – | –
Cc1nc(NC(=S)NC(=O)c2ccc(Cl)c(Cl)c2)sc1C(=O)/C=C/c1ccccc1[N+](=O)[O-] | – | > 100 | – | 41.2 | – | 47.9 | – | 88.2 | – | 44.9 | – | 63.5 | – | 28.5 | – | – | – | 58.9 | – | –
CCCCCCCC[N+](C)(C)Cc1ccc(C[N+](C)(C)CCCCCCCC)cc1 | – | > 100 | – | > 100 | – | > 100 | – | > 100 | – | 47 | – | > 100 | – | > 100 | – | > 100 | – | > 100 | – | –
COc1ccc2cc(C(=O)c3ccccc3C(=O)O)ccc2c1 | – | > 100 | – | > 100 | – | > 100 | – | > 100 | – | > 100 | – | > 100 | – | > 100 | – | > 100 | – | > 100 | – | –
CCN1C(=O)N(CC)C2C1NN=c1s/c(=C3\C(=O)N(CCC(C)C)c4ccccc43)c(=O)n12 (stereo not drawn) | 2.8 | 20.5 | 1.08 | > 100 | 1.89 | 6.45 | 1.02 | > 100 | 1.9 | 5.47 | – | – | 0.607 | 8.04 | – | – | 1.34 | 3.86 | 0.308 | 1.14
CC1(C)CC23C(=O)N(c4ccccc4)C(=Nc4ccccc4)NC2=CC(C#N)=C(C#N)C3O1 (stereo not drawn) | – | > 100 | – | > 100 | – | > 100 | – | > 100 | – | > 100 | – | > 100 | – | > 100 | – | > 100 | – | > 100 | – | –
Nn1c(CCCl)nc2c(Br)cc(Br)cc2c1=O | – | > 100 | – | > 55 | – | 71.8 | – | 69.3 | – | 62.8 | – | > 100 | – | > 83.8 | – | > 71.5 | – | > 100 | – | –
C/C(CC(=O)CCCC(=O)Nc1ccc(Cl)cc1Cl)=N/NC(=O)CC#N | – | > 100 | – | > 100 | – | – | – | > 100 | – | > 100 | – | > 100 | – | > 100 | – | > 100 | – | > 100 | – | –
CCOC(=O)/C(=C/c1ccc(OC)c(OC)c1)C(=O)c1ccccc1 | – | 36.7 | – | 48.5 | – | 35.6 | – | 60.3 | – | 35.6 | – | 76.8 | – | 29.5 | – | 40.6 | – | 46.9 | – | –
c1cncc(C2c3[nH]c4ccccc4c3CCN2CCCN2CCCCC2)c1 (stereo not drawn) | – | – | – | > 100 | – | > 100 | – | > 100 | – | > 100 | – | > 100 | – | > 100 | – | > 100 | – | > 100 | – | –
C#C[C@@]1(O)[C@@H](CO)O[C@@H](n2cc(Cl)c3c(N)ncnc32)[C@@H]1O | 0.333 | 21.2 | 0.0709 | – | 0.254 | 1.97 | 0.323 | 3.34 | 0.192 | 0.957 | 0.0336 | 1.48 | – | – | 0.425 | > 84.2 | 0.202 | 3.2 | 0.166 | 2.4
COc1cc2c(c(OC)c1OC)-c1ccc([O-])c(=O)cc1[C@@H](NC(C)=O)CC2.COc1cc2c(c(OC)c1OC)-c1ccc([O-])c(=O)cc1[C@@H](NC(C)=O)CC2.[Cu+2] | 3.89 | 22.7 | 3.44 | > 100 | 5.67 | > 100 | 4.91 | > 100 | 3.73 | > 100 | 3.77 | 34.5 | 1.86 | 11.4 | 14.8 | > 100 | 3.1 | > 100 | – | –
C=C(C)C1CC=C(C(=O)O)CC1 (stereo not drawn) | – | 4060 | – | > 5000 | – | 1770 | – | > 5000 | – | 2200 | – | > 5000 | – | 1450 | – | > 5000 | – | > 5000 | – | –
COc1cc(C(=O)C/C(CCC(=O)Nc2ccccc2[N+](=O)[O-])=N\NC(=O)C(N)=O)ccc1O | – | > 100 | – | > 100 | – | > 100 | – | > 100 | – | > 100 | – | > 100 | – | > 100 | – | > 100 | – | > 100 | – | –
